Results as given in US6528275B1, “Substrates and inhibitors of proteolytic enzymes” (Peptide Therapeutics Limited, priority 1996, dated 2003).
Non-standard residues stand in square brackets, D forms with d. Residues, ends and D or L forms follow the SMILES beside them. Tyr(3-NO2) = N[C@@H](Cc1ccc(O)c([N+](=O)[O-])c1)C(=O)O; 2Nal = N[C@@H](Cc1ccc2ccccc2c1)C(=O)O; Hyp = O=C(O)[C@@H]1C[C@@H](O)CN1; 3Pal = N[C@@H](Cc1cccnc1)C(=O)O; Tic = O=C(O)[C@@H]1Cc2ccccc2CN1; hLeu = CC(C)CC[C@H](N)C(=O)O; dNle = CCCC[C@@H](N)C(=O)O; Ac6c = NC1(C(=O)O)CCCCC1; Nle = CCCC[C@H](N)C(=O)O; Ac5c = NC1(C(=O)O)CCCC1; 2Abz = Nc1ccccc1C(=O)O

These compounds were tested against T1, Der pI (Dermatophagoides pteronyssinus, UniProt P08176) (assay: Der pI substrate assay with FRET peptides (fluorescence, Km, kcat/Km)). Details: purified Der pI; peptides SEQ ID Nos. 1-76.
T1 construct: tissue SmithKline-Beecham, U.K (crude mite extract); host or cells: crude house dust mite extract
T1 sequence (P08176 99-320): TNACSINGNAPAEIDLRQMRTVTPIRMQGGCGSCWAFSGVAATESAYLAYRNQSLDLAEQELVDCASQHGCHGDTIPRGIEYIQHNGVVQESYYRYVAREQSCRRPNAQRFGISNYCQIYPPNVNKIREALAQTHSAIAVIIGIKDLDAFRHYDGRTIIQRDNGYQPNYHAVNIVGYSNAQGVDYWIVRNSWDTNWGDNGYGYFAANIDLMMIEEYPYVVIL
Format: biochemical, house dust mite
Parameters: key: NS indicates that the peptide was not hydrolysed by Der pI.; NM indicated that the peptide was a substrate for Der pI, but the Km was not measured.; NM^a indicates that the peptide was a substrate for Der pI, and its cleavage was followed by HPLC-MS showing hydrolysis to occur between-Nle-Ser-
Protocol: Using the general techniques described above, the following compounds were prepared and assayed as potential substrates against Der pI purified as described above.
Each mixture of 20 compounds in the libraries of the apparatus described herein was screened at a concentration of 1.0 μM per compound in an assay against the cysteinyl protease Der pI.
Plate assays were carried out in 96 well plate format, using 0.1 ug of Der pI per 100 μL assay volume in each well and using 20 μM of the substrate. All assays were performed in Assay Buffer (AB; 50 mM potassium phosphate, pH 8.25 containing 1 mM ethylenediaminetetraacetic acid (EDTA) and 1 mM dithiothreitol (DTT). The Der pI enzyme is pre-activated by addition of DTT and this in incubated at room temperature for 5 min. prior to initiation of the assay. As an example for the screening methodology, each well contains a 5 μL of a 20 μM solution of the test compound in DMSO, 10 μL of a 200 μM aqueous solution of the substrate, 2, and 85 μL of Der pI in AB is added to initiate the reaction. Enzyme activity is monitored by fluorescence using 320 nm for excitation and 420 nm for the emission wavelengths using a Labsystems Fluroskan Ascent machine. Kinetic measurements were carried out using a Hitachi F-4500 Fluorescence Spectrophotometer.
In the case of `CC(C)CC[C@H](NC(=O)[C@H](C)NC(=O)C1(NC(=O)c2ccccc2N)CCCCC1)C(=O)N[C@@H](CO)C(=O)N[C@@H](Cc1ccc(O)c([N+](=O)[O-])c1)C(=O)N[C@@H](CC(=O)O)C(N)=O` [Abz-ACH-Ala-hLeu-Ser-Tyr(NO2)-Asp-NH2] (H-[2Abz][Ac6c]A[hLeu]S[Tyr(3-NO2)]D-NH2), the “substrate or not substrate for Der pI (symbols in Measured Km)” value (from here on “substrate or not substrate for Der pI”) is reported as “NS”.
In the case of `CCCC[C@H](NC(=O)[C@H](C)NC(=O)c1ccccc1N)C(=O)N[C@@H](CO)C(=O)N[C@@H](Cc1ccc(O)c([N+](=O)[O-])c1)C(=O)N[C@@H](CC(=O)O)C(N)=O` [Abz-Ala-Nle-Ser-Tyr(NO2)-Asp-NH2] (H-[2Abz]A[Nle]S[Tyr(3-NO2)]D-NH2), the “substrate or not substrate for Der pI” value is reported as “NM”.
With `CC(C)CC[C@H](NC(=O)[C@H](C)NC(=O)[C@H](NC(=O)c1ccccc1N)C(C)C)C(=O)N[C@@H](CO)C(=O)N[C@@H](Cc1ccc(O)c([N+](=O)[O-])c1)C(=O)N[C@@H](CC(=O)O)C(N)=O` [Abz-DVal-Ala-hLeu-Ser-Tyr(NO2)-Asp-NH2] (H-[2Abz][dV]A[hLeu]S[Tyr(3-NO2)]D-NH2) the “substrate or not substrate for Der pI” value was “NS”.
`CCCC[C@H](NC(=O)[C@H](C)NC(=O)[C@@H](NC(=O)[C@@H]1C[C@@H](O)CN1C(=O)c1ccccc1N)C(C)C)C(=O)N[C@@H](CO)C(=O)N[C@@H](Cc1ccc(O)c([N+](=O)[O-])c1)C(=O)N[C@@H](CC(=O)O)C(N)=O` [Abz-Hyp-Val-Ala-Nle-Ser-Tyr(NO2)-Asp-NH2] (H-[2Abz][Hyp]VA[Nle]S[Tyr(3-NO2)]D-NH2) was tested, and the “substrate or not substrate for Der pI” value was “NS”.
In the case of `CCCC[C@H](NC(=O)[C@H](C)NC(=O)[C@@H](NC(=O)[C@H](CC(C)C)NC(=O)c1ccccc1N)C(C)C)C(=O)N[C@@H](CO)C(=O)N[C@@H](Cc1ccc(O)c([N+](=O)[O-])c1)C(=O)N[C@@H](CC(=O)O)C(N)=O` [Abz-Leu-Val-Ala-Nle-Ser-Tyr(NO2)-Asp-NH2] (H-[2Abz]LVA[Nle]S[Tyr(3-NO2)]D-NH2), the “substrate or not substrate for Der pI” value is reported as “NM”.
With `CCCC[C@H](NC(=O)c1ccccc1N)C(=O)N[C@@H](CO)C(=O)N[C@@H](Cc1ccc(O)c([N+](=O)[O-])c1)C(=O)N[C@@H](CC(=O)O)C(N)=O` [Abz-Nle-Ser-Tyr(NO2)-Asp-NH2] (H-[2Abz][Nle]S[Tyr(3-NO2)]D-NH2) the “substrate or not substrate for Der pI” value was “NS”.
In the case of `CCCC[C@H](NC(=O)[C@H](C)NC(=O)[C@@H](NC(=O)[C@H](Cc1ccccc1)NC(=O)c1ccccc1N)C(C)C)C(=O)N[C@@H](CO)C(=O)N[C@@H](Cc1ccc(O)c([N+](=O)[O-])c1)C(=O)N[C@@H](CC(=O)O)C(N)=O` [Abz-Phe-Val-Ala-Nle-Ser-Tyr(NO2)-Asp-NH2] (H-[2Abz]FVA[Nle]S[Tyr(3-NO2)]D-NH2), the “substrate or not substrate for Der pI” value is reported as “NM”.
`CC(C)CC[C@H](NC(=O)[C@H](C)NC(=O)[C@@H]1Cc2ccccc2CN1C(=O)c1ccccc1N)C(=O)N[C@@H](CO)C(=O)N[C@@H](Cc1ccc(O)c([N+](=O)[O-])c1)C(=O)N[C@@H](CC(=O)O)C(N)=O` [Abz-Tic-Ala-hLeu-Ser-Tyr(NO2)-Asp-NH2] (H-[2Abz][Tic]A[hLeu]S[Tyr(3-NO2)]D-NH2) was tested, and the “substrate or not substrate for Der pI” value was “NS”.
With `CCCC[C@H](NC(=O)[C@H](C)NC(=O)[C@@H](NC(=O)[C@H](Cc1ccc(O)cc1)NC(=O)c1ccccc1N)C(C)C)C(=O)N[C@@H](CO)C(=O)N[C@@H](Cc1ccc(O)c([N+](=O)[O-])c1)C(=O)N[C@@H](CC(=O)O)C(N)=O` [Abz-Tyr-Val-Ala-Nle-Ser-Tyr(NO2)-Asp-NH2] (H-[2Abz]YVA[Nle]S[Tyr(3-NO2)]D-NH2) the “substrate or not substrate for Der pI” value was “NM”.
For `CC(C)CC[C@H](NC(=O)[C@@H](CCC(N)=O)NC(=O)[C@@H](NC(=O)c1ccccc1N)C(C)C)C(=O)N[C@@H](CO)C(=O)N[C@@H](Cc1ccc(O)c([N+](=O)[O-])c1)C(=O)N[C@@H](CC(=O)O)C(N)=O` [Abz-Va1-DGln-hLeu-Ser-Tyr(NO2)-Asp-NH2] (H-[2Abz]V[dQ][hLeu]S[Tyr(3-NO2)]D-NH2), the “substrate or not substrate for Der pI” value was “NS”.
In the case of `CC(C)CC[C@H](NC(=O)[C@H](Cc1ccc2ccccc2c1)NC(=O)[C@@H](NC(=O)c1ccccc1N)C(C)C)C(=O)N[C@@H](CO)C(=O)N[C@@H](Cc1ccc(O)c([N+](=O)[O-])c1)C(=O)N[C@@H](CC(=O)O)C(N)=O` [Abz-Val-2Nal-hLeu-Ser-Tyr(NO2)-Asp-NH2] (H-[2Abz]V[2Nal][hLeu]S[Tyr(3-NO2)]D-NH2), the “substrate or not substrate for Der pI” value is reported as “NS”.
With `CC(C)CC[C@H](NC(=O)[C@H](Cc1cccnc1)NC(=O)[C@@H](NC(=O)c1ccccc1N)C(C)C)C(=O)N[C@@H](CO)C(=O)N[C@@H](Cc1ccc(O)c([N+](=O)[O-])c1)C(=O)N[C@@H](CC(=O)O)C(N)=O` [Abz-Val-3pyr-hLeu-Ser-Tyr(NO2)-Asp-NH2] (H-[2Abz]V[3Pal][hLeu]S[Tyr(3-NO2)]D-NH2) the “substrate or not substrate for Der pI” value was “NS”.
`CC(C)CC[C@H](NC(=O)C1(NC(=O)[C@@H](NC(=O)c2ccccc2N)C(C)C)CCCCC1)C(=O)N[C@@H](CO)C(=O)N[C@@H](Cc1ccc(O)c([N+](=O)[O-])c1)C(=O)N[C@@H](CC(=O)O)C(N)=O` [Abz-Val-ACH-hLeu-Ser-Tyr(NO2)-Asp-NH2] (H-[2Abz]V[Ac6c][hLeu]S[Tyr(3-NO2)]D-NH2) was tested, and the “substrate or not substrate for Der pI” value was “NS”.
For `CC(C)CC[C@H](NC(=O)C1(NC(=O)[C@@H](NC(=O)c2ccccc2N)C(C)C)CCCC1)C(=O)N[C@@H](CO)C(=O)N[C@@H](Cc1ccc(O)c([N+](=O)[O-])c1)C(=O)N[C@@H](CC(=O)O)C(N)=O` [Abz-Val-ACP-hLeu-Ser-Tyr(NO2)-Asp-NH2] (H-[2Abz]V[Ac5c][hLeu]S[Tyr(3-NO2)]D-NH2), the “substrate or not substrate for Der pI” value was “NS”.
In the case of `CC(C)[C@H](NC(=O)c1ccccc1N)C(=O)N[C@@H](C)C(=O)NC1(C(=O)N[C@@H](CO)C(=O)N[C@@H](Cc2ccc(O)c([N+](=O)[O-])c2)C(=O)N[C@@H](CC(=O)O)C(N)=O)CCCCC1` [Abz-Val-Ala-ACH-Ser-Tyr(NO2)-Asp-NH2] (H-[2Abz]VA[Ac6c]S[Tyr(3-NO2)]D-NH2), the “substrate or not substrate for Der pI” value is reported as “NS”.
In the case of `CC(C)[C@H](NC(=O)c1ccccc1N)C(=O)N[C@@H](C)C(=O)NC1(C(=O)N[C@@H](CO)C(=O)N[C@@H](Cc2ccc(O)c([N+](=O)[O-])c2)C(=O)N[C@@H](CC(=O)O)C(N)=O)CCCC1` [Abz-Val-Ala-ACP-Ser-Tyr(NO2)-Asp-NH2] (H-[2Abz]VA[Ac5c]S[Tyr(3-NO2)]D-NH2), the “substrate or not substrate for Der pI” value is reported as “NS”.
`CCCC[C@@H](NC(=O)[C@H](C)NC(=O)[C@@H](NC(=O)c1ccccc1N)C(C)C)C(=O)N[C@@H](CO)C(=O)N[C@@H](Cc1ccc(O)c([N+](=O)[O-])c1)C(=O)N[C@@H](CC(=O)O)C(N)=O` [Abz-Val-Ala-DNle-Ser-Tyr(NO2)-Asp-NH2] (H-[2Abz]VA[dNle]S[Tyr(3-NO2)]D-NH2) was tested, and the “substrate or not substrate for Der pI” value was “NS”.
In the case of `CC(C)[C@H](NC(=O)c1ccccc1N)C(=O)N[C@@H](C)C(=O)N1C[C@H](O)C[C@H]1C(=O)N[C@@H](CO)C(=O)N[C@@H](Cc1ccc(O)c([N+](=O)[O-])c1)C(=O)N[C@@H](CC(=O)O)C(N)=O` [Abz-Val-Ala-Hyp-Ser-Tyr(NO2)-Asp-NH2] (H-[2Abz]VA[Hyp]S[Tyr(3-NO2)]D-NH2), the “substrate or not substrate for Der pI” value is reported as “NS”.
`CCCC[C@H](NC(=O)[C@H](C)NC(=O)[C@@H](NC(=O)c1ccccc1N)C(C)C)C(=O)N[C@@H](CO)C(=O)N[C@@H](C)C(=O)N[C@@H](CC(=O)O)C(N)=O` [Abz-Val-Ala-Nle-Ser-Ala-Asp-NH2] (H-[2Abz]VA[Nle]SAD-NH2) was tested, and the “substrate or not substrate for Der pI” value was “NM”.
In the case of `CCCC[C@H](NC(=O)[C@H](C)NC(=O)[C@@H](NC(=O)c1ccccc1N)C(C)C)C(=O)N[C@@H](CO)C(=O)N[C@@H](CCCCN)C(=O)N[C@@H](CC(=O)O)C(N)=O` [Abz-Val-Ala-Nle-Ser-Lys-Asp-NH2] (H-[2Abz]VA[Nle]SKD-NH2), the “substrate or not substrate for Der pI” value is reported as “NM”.
For `CCCC[C@H](NC(=O)[C@H](C)NC(=O)[C@@H](NC(=O)c1ccccc1N)C(C)C)C(=O)N[C@@H](CO)C(N)=O` [Abz-Val-Ala-Nle-Ser-NH2] (H-[2Abz]VA[Nle]S-NH2), the “substrate or not substrate for Der pI” value was “NM”.
For `CCCC[C@H](NC(=O)[C@H](C)NC(=O)[C@@H](NC(=O)c1ccccc1N)C(C)C)C(=O)N[C@@H](CO)C(=O)N[C@@H](Cc1ccccc1)C(=O)N[C@@H](CC(=O)O)C(N)=O` [Abz-Val-Ala-Nle-Ser-Phe-Asp-NH2] (H-[2Abz]VA[Nle]SFD-NH2), the “substrate or not substrate for Der pI” value was “NM”.
`CCCC[C@H](NC(=O)[C@H](C)NC(=O)[C@@H](NC(=O)c1ccccc1N)C(C)C)C(=O)N[C@@H](CO)C(=O)N[C@@H](Cc1ccc(O)c([N+](=O)[O-])c1)C(N)=O` [Abz-Val-Ala-Nle-Ser-Tyr(NO2)-NH2] (H-[2Abz]VA[Nle]S[Tyr(3-NO2)]-NH2) was tested, and the “substrate or not substrate for Der pI” value was “NM”.
